# Experiments:
# SH-SY5Y cells = assay: SYTOX cell viability assay, SH-SY5Y; type: cell-based, human; conditions: 20 µM, 24 h, serum-free charcoal-treated medium, vs DMSO control (0.2%), mean
# Protocol: The SYTOX cell viability assay was performed in SHSY5Y cells. Cells were treated with either compound (20 µM) or DMSO control (0.2%) for 24 h at 37 °C and 5% CO2 in serum‐free charcoal‐treated medium. Results were normalized to the DMSO control. Mean ± SD was calculated from three independent experiments, each performed in quadruplicate. […]
# serum-free media containing either treatment at a concentration of 20 µM or DMSO (ITW Reagents Cat A3672) control (0.2 %).
# (§1) Following 24 h of incubation, 12.5 μL of an XTT/phenazine methosulfate (PMS) (XTT Sigma Aldrich cat X4626, PMS Serva CAT: 3203) 0.02solution (1 mg/mL XTT and 7.5 μg/mL PMS) was added to each well. Absorbance was measured using a microplate reader (Biotek Synergy HT) at 450 nm (signal) and 650 nm (background), 2 h after the addition of the XTT/PMS solution. Individual backgrounds were subtracted and all results were normalized to DMSO control. Mean ± SD was determined from three independent experiments, each performed in quintuplicate.
# SYTOX cell viability assay
# The cytotoxic potential was additionally evaluated using the staining-based SYTOX viability assay. […] Data was acquired on the BioTeck Cytation5 microscope and evaluated by the manufacturer’s software (Gen5 Image Prime Version 3.12). […] Mean ± SD was determined from three independent experiments, each performed in quadruplicate. […]
# juvenile S. mansoni = assay: In vitro drug sensitivity assay on juvenile S. mansoni; type: cell-based, Schistosoma mansoni; conditions: Schistosoma mansoni; 72 h incubation, 37 °C, 5% CO2
# Protocol: Juvenile worms were gained through cultivation of NTS as previously described. 10 In short, NTS were obtained as described above, then directly after the mechanical transformation process the newly transformed schistosomula were placed in a special culturing medium. The culture medium consists of Panserin 401, w: L-Glutamine, serum free all-round medium (Pan Biotech, Aidenbach, Germany) supplemented with 20 % human serum and 500 U/mL penicillin, […] streptomycin (LuBioScience, Switzerland). 96-well transparent polystyrene flat bottom plates were used for the in vitro growth procedure, with 40 to 60 NTS per well in 100 µL culture medium. The bordering wells of the plate were filled solely with medium to counteract evaporation and to keep the humidity as steady as possible. The plates were incubated for 21 days at 5 % CO2 and at 37 °C, with regular medium changes every 3 to 4 days. After the 21 days culturing period, the schistosomulae developed into juveniles. For the drug sensitivity assay, juvenile worms were incubated over 72 h (5 % CO 2 and 37 °C) with the test compound in the same medium, as used for the culturing process. In a 96-well plate, 250 µL medium containing the test compound and six juvenile worms, ideally of both sexes were placed in each well. All compounds were tested twice independently at 50, 10, 5 and 1 µM in duplicates. The viability of the worms was evaluated microscopically after 24, 48 and 72 h of continuous drug exposure using the same phenotypic screening method as described before. […]
# [1] = tested on: HUH7 hepatocarcinoma cells; assay: XTT mitochondrial activity/cell viability assay, HUH7; type: cell-based; conditions: 20 µM, 24 h, serum-free media, vs DMSO control (0.2%)
# Protocol: Results were normalized to the DMSO control. […]
# to, so that all test concentrations contained always the same amount of DMSO.
# Additionally, 2 wells with negative controls containing only DMSO and the culture medium were included. After an incubation period of 72 h at 37 °C and 5 % CO 2, the worms were microscopically evaluated. The drug effect was determined 24, 48 and 72 h post-exposure based on the phenotype of the adult worms, using a viability scale ranging from three referring to viable, motile worms with no change in their tegument to zero standing for the death of the worms.
# All described in vitro studies with mice involved, were conducted at the Swiss Tropical and Public Health Institute, first in Basel, later in Allschwil, and had the approval by the corresponding veterinary authorities of the Canton Basel-Stadt (permit no. 2070) […]
# as §1, with “Individual backgrounds were subtracted and all results were normalized to DMSO control.” left out, “quintuplicate. […]” for “quintuplicate.”
# The cytotoxic potential was additionally evaluated using the staining-based SYTOX viability assay. […]
compound,measurement,setting,value
"O=C1NCCN1c1ncc([N+](=O)[O-])s1 [Niridazole, niridazole]",reduction of SH-SY5Y cell viability (SYTOX),SH-SY5Y cells,no signs of toxicity
same,EC50,juvenile S. mansoni,1800 nM
same,XTT activity in HUH7 cells compared to DMSO control,[1],no signs of toxicity

# Source: article PMC12677843, “Multidisciplinary Preclinical Investigations on Ferrocenyl, Ruthenocenyl, and Benzyl Derivatives of Niridazole as New Drug Candidates against Schistosomiasis” (Chemmedchem, 2025)
